According to patent US9346815B2, “5-chloro-2-difluoromethoxyphenyl pyrazolopyrimidine compounds, compositions and methods of use thereof” (Genentech, Inc., priority 2014, dated 2016):
Where a name gives a salt, the structure may show the parent alone.

Tests used:
[1] = test system: JAK1-dependent STAT6 phosphorylation downstream of IL-13 stimulation in TF-1 human erythroleukemia cells; assay: JAK1 pathway assay in TF-1 cells (IL-13-pSTAT6, MSD); type: cell-based; conditions: Homo sapiens, TF-1, TF-1 cells, read-out: IL13-pSTAT6 EC50_TF-1
In short: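 BEAS-2B: complete growth medium, compound 1 hr at 37° C. TF-1: GM-CSF-starved overnight, serum-free OptiMEM, compound 30 min.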

[2] = target: isolated recombinant JAK2 kinase domain (Homo sapiens (Human), UniProt O60674); assay: JAK2 enzyme assay (Caliper LabChip, peptide phosphorylation); type: biochemical; conditions: 25 μM ATP
isolated recombinant JAK2 kinase domain, sequence (O60674 849-1124): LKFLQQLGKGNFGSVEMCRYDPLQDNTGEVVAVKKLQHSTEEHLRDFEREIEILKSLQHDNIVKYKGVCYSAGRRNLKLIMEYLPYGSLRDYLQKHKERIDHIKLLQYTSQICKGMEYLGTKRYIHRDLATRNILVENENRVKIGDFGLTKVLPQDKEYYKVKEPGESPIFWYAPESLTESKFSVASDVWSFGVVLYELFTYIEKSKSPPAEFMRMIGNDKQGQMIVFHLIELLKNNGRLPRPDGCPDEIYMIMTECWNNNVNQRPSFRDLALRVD

[3] = target: isolated recombinant JAK1 kinase domain (Homo sapiens (Human), UniProt P23458); assay: JAK1 enzyme assay (Caliper LabChip, peptide phosphorylation); type: biochemical; conditions: isolated recombinant JAK1 kinase domain, 25 μM ATP
isolated recombinant JAK1 kinase domain, sequence (P23458 875-1153): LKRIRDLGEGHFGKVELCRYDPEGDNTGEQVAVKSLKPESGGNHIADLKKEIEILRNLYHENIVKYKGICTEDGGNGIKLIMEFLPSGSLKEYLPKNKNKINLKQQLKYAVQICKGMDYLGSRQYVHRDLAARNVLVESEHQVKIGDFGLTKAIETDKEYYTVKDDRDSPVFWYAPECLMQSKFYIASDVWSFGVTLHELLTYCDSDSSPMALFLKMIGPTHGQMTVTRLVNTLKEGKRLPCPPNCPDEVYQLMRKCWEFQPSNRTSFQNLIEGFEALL

Row | SMILES | EC50 [1] [nM] | Ki [2] [nM] | Ki [3] [nM]
1 | O=C(Nc1sc(N2CCC(N3CC(F)C3)CC2)nc1-c1cc(Cl)ccc1OC(F)F)c1cnn2cccnc12 [Example 194, N-[4-[5-chloro-2-(difluoromethoxy)phenyl]-2-[4-(3-fluoroazetidin-1-yl)-1-piperidyl]thiazol-5-yl]pyrazolo[1,5-a]pyrimidine-3-carboxamide] | 17.4 | 1.44 | 2.28
2 | Nc1nn2cccnc2c1C(=O)Nc1cn(C2CCN(CCCN3CCNC3=O)CC2)nc1-c1cc(Cl)ccc1OC(F)F [Example 163, 2-amino-N-[3-[5-chloro-2-(difluoromethoxy)phenyl]-1-[1-[3-(2-oxoimidazolidin-1-yl)propyl]-4-piperidyl]pyrazol-4-yl]pyrazolo[1,5-a]pyrimidine-3-carboxamide] | 7.3 | 0.19 | 0.69
3 | COCCN(C)C1CCN(C(=O)Cn2cc(NC(=O)c3c(N)nn4cccnc34)c(-c3cc(Cl)ccc3OC(F)F)n2)CC1 [Example 141, 2-amino-N-[3-[5-chloro-2-(difluoromethoxy)phenyl]-1-[2-[4-[2-methoxy-ethyl(methyl)amino]-1-piperidyl]-2-oxo-ethyl]pyrazol-4-yl]pyrazolo[1,5-a]pyrimidine-3-carboxamide] | 15 | 0.59 | 0.68
4 | CN(C)C1CCN(C(=O)c2ccc(-n3cc(NC(=O)c4cnn5cccnc45)c(-c4cc(Cl)ccc4OC(F)F)n3)cc2)CC1 [Example 302, Pyrazolo[1,5-a]pyrimidine-3-carboxylic acid {3-(5-chloro-2-difluoromethoxy-phenyl)-1-[4-(4-dimethylamino-piperidine-1-carbonyl)-phenyl]-1H-pyrazol-4-yl}-amide hydrochloride] | 16.2 | 1.11 | 0.6
5 | CC(=O)NCCCN1CCC(n2cc(NC(=O)c3cnn4cccnc34)c(-c3cc(Cl)ccc3OC(F)F)n2)CC1 [Example 142, Pyrazolo[1,5-a]pyrimidine-3-carboxylic acid [1-[1-(3-acetylaminopropyl)piperidin-4-yl]-3-(5-chloro-2-difluoromethoxyphenyl)-1H-pyrazol-4-yl]amide hydrochloride] | 36.3 | 0.38 | 1.65
6 | O=C(Nc1sc(-c2ccncc2)nc1-c1cc(Cl)ccc1OC(F)F)c1cnn2cccnc12 [Example 254, N-[4-[5-chloro-2-(difluoromethoxy)phenyl]-2-(4-pyridyl)thiazol-5-yl]pyrazolo[1,5-a]pyrimidine-3-carboxamide] | 117 | 0.77 | 1.63
7 | COCCN(C)C1CCN(C(=O)Cn2cc(NC(=O)c3cnn4cccnc34)c(-c3cc(Cl)ccc3OC(F)F)n2)CC1 [Example 68, N-[3-[5-chloro-2-(difluoromethoxy)phenyl]-1-[2-[4-[2-methoxyethyl(methyl)amino]-1-piperidyl]-2-oxo-ethyl]pyrazol-4-yl]pyrazolo[1,5-a]pyrimidine-3-carboxamide] | 13.4 | 1.68 | 0.74
8 | CN(C)C1CCN(Cc2nc(-c3cc(Cl)ccc3OC(F)F)c(NC(=O)c3cnn4cccnc34)s2)CC1 [Example 260, Pyrazolo[1,5-a]pyrimidine-3-carboxylic acid [4-(5-chloro-2-difluoromethoxy-phenyl)-2-(4-dimethylamino-piperidin-1-ylmethyl)-thiazol-5-yl]-amide] | 68.5 | 2.65 | 7.74
9 | Nc1nn2cccnc2c1C(=O)Nc1cn(C2CCN(CCCN3CCN(Cc4ccccc4)C3=O)CC2)nc1-c1cc(Cl)ccc1OC(F)F [Example 166, 2-amino-N-[1-[1-[3-(3-benzyl-2-oxo-imidazolidin-1-yl)propyl]-4-piperidyl]-3-[5-chloro-2-(difluoromethoxy)phenyl]pyrazol-4-yl]pyrazolo[1,5-a]pyrimidine-3-carboxamide] | 22.9 | 0.26 | 0.91
10 | CN(C)CCC1CCN(c2nc(-c3cc(Cl)ccc3OC(F)F)c(NC(=O)c3cnn4cccnc34)s2)CC1 [Example 191, N-[4-[5-chloro-2-(difluoromethoxy)phenyl]-2-[4-[2-(dimethylamino)ethyl]-1-piperidyl]thiazol-5-yl]pyrazolo[1,5-a]pyrimidine-3-carboxamide] | 10.5 | 2.92 | 2.93
11 | O=C(Nc1sc(N2CCN(CC(F)(F)F)CC2)nc1-c1cc(Cl)ccc1OC(F)F)c1cnn2cccnc12 [Example 208, N-[4-[5-chloro-2-(difluoromethoxy)phenyl]-2-[4-(2,2,2-trifluoroethyl)piperazin-1-yl]thiazol-5-yl]pyrazolo[1,5-a]pyrimidine-3-carboxamide] | 33.5 | 1.08 | 1.38
12 | CN1C[C@H]2CN(C(=O)Cn3cc(NC(=O)c4cnn5cccnc45)c(-c4cc(Cl)ccc4OC(F)F)n3)C[C@@]2(c2ccccc2)C1 [Example 43, N-[1-[2-[(3aS,6aS)-2-methyl-3a-phenyl-3,4,6,6a-tetrahydro-1H-pyrrolo[3,4-c]pyrrol-5-yl]-2-oxo-ethyl]-3-[5-chloro-2-(difluoromethoxy)phenyl]pyrazol-4-yl]pyrazolo[1,5-a]pyrimidine-3-carboxamide] | 15 | 0.36 | 0.66
13 | CN(CC1(C#N)CCCCC1)C1CCN(C(=O)Cn2cc(NC(=O)c3cnn4cccnc34)c(-c3cc(Cl)ccc3OC(F)F)n2)CC1 [Example 114, N-[3-[5-chloro-2-(difluoromethoxy)phenyl]-1-[2-[4-[(1-cyanocyclohexyl)methyl-methyl-amino]-1-piperidyl]-2-oxo-ethyl]pyrazol-4-yl]pyrazolo[1,5-a]pyrimidine-3-carboxamide] | 15.3 | 1.34 | 0.52
14 | CN(CCc1ccc(O)cc1)C1CCN(C(=O)Cn2cc(NC(=O)c3cnn4cccnc34)c(-c3cc(Cl)ccc3OC(F)F)n2)CC1 [Example 90, N-[3-[5-chloro-2-(difluoromethoxy)phenyl]-1-[2-[4-[2-(4-hydroxyphenyl)ethyl-methyl-amino]-1-piperidyl]-2-oxo-ethyl]pyrazol-4-yl]pyrazolo[1,5-a]pyrimidine-3-carboxamide] | 23.3 | 1.31 | 0.95
15 | CC(=O)NCCCN1CCC(n2cc(NC(=O)c3c(N)nn4cccnc34)c(-c3cc(Cl)ccc3OC(F)F)n2)CC1 [Example 150, N-[1-[1-(3-acetamidopropyl)-4-piperidyl]-3-[5-chloro-2-(difluoromethoxy)phenyl]pyrazol-4-yl]-2-amino-pyrazolo[1,5-a]pyrimidine-3-carboxamide] | 20.1 | 0.17 | 0.73
16 | O=C(CCCN1CCC(n2cc(NC(=O)c3cnn4cccnc34)c(-c3cc(Cl)ccc3OC(F)F)n2)CC1)NC1CCOCC1 [Example 152, N-[3-[5-chloro-2-(difluoromethoxy)phenyl]-1-[1-[4-oxo-4-(tetrahydropyran-4-ylamino)butyl]-4-piperidyl]pyrazol-4-yl]pyrazolo[1,5-a]pyrimidine-3-carboxamide] | 11.9 | 0.19 | 1.08
17 | CN(CCCN1CCC(n2cc(NC(=O)c3c(N)nn4cccnc34)c(-c3cc(Cl)ccc3OC(F)F)n2)CC1)C(=O)c1ccccc1 [Example 151, 2-amino-N-[1-[1-[3-[benzoyl(methyl)amino]propyl]-4-piperidyl]-3-[5-chloro-2-(difluoromethoxy)phenyl]pyrazol-4-yl]pyrazolo[1,5-a]pyrimidine-3-carboxamide] | 93.8 | 0.42 | 2
18 | CCN1CC2CN(C(=O)Cn3cc(NC(=O)c4c(N)nn5cccnc45)c(-c4cc(Cl)ccc4OC(F)F)n3)CC2C1 (stereo not drawn) [Example 11, 2-amino-N-[3-[5-chloro-2-(difluoromethoxy)phenyl]-1-[2-(2-ethyl-1,3,3a,4,6,6a-hexahydropyrrolo[3,4-c]pyrrol-5-yl)-2-oxo-ethyl]pyrazol-4-yl]pyrazolo[1,5-a]pyrimidine-3-carboxamide] | 11.8 | 0.3 | 1.05
19 | CN1CC[C@@H]2[C@@H](CCN2C(=O)Cn2cc(NC(=O)c3cnn4cccnc34)c(-c3cc(Cl)ccc3OC(F)F)n2)C1 [Example 24, N-[1-[2-[(3aS,7aR)-5-methyl-3,3a,4,6,7,7a-hexahydro-2H-pyrrolo[3,2-c]pyridin-1-yl]-2-oxo-ethyl]-3-[5-chloro-2-(difluoromethoxy)phenyl]pyrazol-4-yl]pyrazolo[1,5-a]pyrimidine-3-carboxamide] | 4.9 | 2.02 | 0.78
20 | Nc1nn2cccnc2c1C(=O)Nc1cn(C2CCN(CCCN3CCCC3=O)CC2)nc1-c1cc(Cl)ccc1OC(F)F [Example 146, 2-amino-N-[3-[5-chloro-2-(difluoromethoxy)phenyl]-1-[1-[3-(2-oxopyrrolidin-1-yl)propyl]-4-piperidyl]pyrazol-4-yl]pyrazolo[1,5-a]pyrimidine-3-carboxamide] | 3.9 | 0.13 | 0.45
21 | O=C(Nc1cn(C2CCNCC2)nc1-c1cc(Cl)ccc1OC(F)F)c1cnn2cccnc12 [Example 1, Pyrazolo[1,5-a]pyrimidine-3-carboxylic acid [3-(5-chloro-2-difluoromethoxyphenyl)-1-piperidin-4-yl-1H-pyrazol-4-yl]amide hydrochloride] | 21.1 | 0.46 | 1.62
22 | NC(=O)CCN1CCC(n2cc(NC(=O)c3c(N)nn4cccnc34)c(-c3cc(Cl)ccc3OC(F)F)n2)CC1 [Example 165, 2-amino-N-[1-[1-(3-amino-3-oxo-propyl)-4-piperidyl]-3-[5-chloro-2-(difluoromethoxy)phenyl]pyrazol-4-yl]pyrazolo[1,5-a]pyrimidine-3-carboxamide] | 6.9 | 0.15 | 0.38
